Experimental data published in patent publication EP4786487A1, “PEPTIDE” (Peptidream Inc, priority 2023, dated 2025).
Like-named read-outs stand apart in the source and are kept apart here. Starred links: 1 amine or outer side, 2 acyl side, 3 side chain; linkers in the order of their positions; H or OH if unused. Positions of bridges follow the written chain, without caps; N, C: chain ends. Non-standard residues stand in square brackets, D forms with d. Residues, ends and D or L forms follow the SMILES beside them. Groups on a side chain read outwards from the residue. *: point of attachment. X16 = O=C([C@H](Cc1c[nH]c2c(-c3cccc(Cl)c3)cccc12)N[*:1])[*:2]; X3 = O=C(O)COc1ccccc1-c1ccc(C[C@H](N[*:1])C(=O)[*:2])cc1; Phe(3-OCH2COOH) = N[C@@H](Cc1cccc(OCC(=O)O)c1)C(=O)O; Trp(6-OH) = N[C@@H](Cc1c[nH]c2cc(O)ccc12)C(=O)O; Phe(4-COOH) = N[C@@H](Cc1ccc(C(=O)O)cc1)C(=O)O; Trp(7-aza) = N[C@@H](Cc1c[nH]c2ncccc12)C(=O)O; Piperazinyl(4-CH2COOH) = O=C(O)CN1CCN(*)CC1; Piperidinyl(4-CH2COOH) = O=C(O)CC1CCN(*)CC1; Phe(3-OMe) = COc1cccc(C[C@H](N)C(=O)O)c1; Gly(decyl) = CCCCCCCCCC[C@H](N)C(=O)O; Gly(N(CH2)3COOH) = O=C(O)CCCNCC(=O)O; X1 = CCCCCCC[C@H](N[*:1])C(=O)[*:2]; NMeCha = CN[C@@H](CC1CCCCC1)C(=O)O; NMeF = CN[C@@H](Cc1ccccc1)C(=O)O; Cha = N[C@@H](CC1CCCCC1)C(=O)O; Carboxymethyl = O=C(O)C*; NMeA = CN[C@@H](C)C(=O)O; Dap = NC[C@H](N)C(=O)O; CO = O=C([*:1])[*:2]; Sar = CNCC(=O)O

Key:
Myostatin = target: T1, Myostatin (Homo sapiens, UniProt O14793); experiment: HepG2 reporter gene assay, Evaluation Procedure (2): 2-concentrations assay, myostatin inhibition; assay type: cell-based
T1 construct: active myostatin (also called mature myostatin) is a homodimer consisting of two C-terminal growth factor domains; purchased R&D systems 788-G8/CF
T1 sequence (O14793 267-375): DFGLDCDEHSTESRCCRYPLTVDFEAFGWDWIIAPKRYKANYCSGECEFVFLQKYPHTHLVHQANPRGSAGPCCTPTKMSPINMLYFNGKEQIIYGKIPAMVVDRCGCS
Outline: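 Myostatin inhibition was measured in a luciferase reporter assay using HepG2 cells transfected with a pGL3 vector containing 12 CAGA repeats upstream of luciferase. After 20 to 24 hours with 10 ng/mL myostatin, cells received One-Glo:PBS (1:1) at 100 µL/well, were shaken for 5 min, and 20 µL/well was moved to 384-well plates and read on an Envision 2104.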

GDF-11 = target: T2, GDF-11 (Homo sapiens, UniProt O95390); experiment: HepG2 reporter gene assay, Evaluation Procedure (2): 2-concentrations assay, GDF-11 inhibition; assay type: cell-based; conditions: for inhibition at 0.03 µM: HepG2, peptide 30nM, read-out: GDF11 Inhibition 30nM; for inhibition at 0.03 µM / inhibition at 0.1 µM: GDF-11 10 ng/mL; for inhibition at 0.1 µM: HepG2, peptide 100nM, read-out: GDF11 Inhibition 100nM
T2 construct: purchased R&D systems 1958-GD-G8/CF
T2 sequence (O95390 299-407): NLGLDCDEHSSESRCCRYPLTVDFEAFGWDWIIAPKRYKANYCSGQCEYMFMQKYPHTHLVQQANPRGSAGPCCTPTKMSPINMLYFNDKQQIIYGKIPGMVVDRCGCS
Outline: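 HepG2 cells carrying the transfected pGL3(CAGA)12-luc reporter, a pGL3 vector with luciferase placed downstream of 12 CAGA repeats, were stimulated with GDF-11 at a final 10 ng/mL together with test peptide. Blank wells received no GDF-11 and no peptide. Plates were incubated 20 to 24 hours at 37°C with 5% CO2. Luminescence from One-Glo substrate was read to calculate percent inhibition.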

[1] = Table 7-3/7-4, myostatin 10 ng/mL, peptide at the higher of the 2 concentrations, HepG2, read-out: inhibition rate (myostatin inhibition assay)
[2] = Table 7-3/7-4, myostatin 10 ng/mL, peptide at the lower of the 2 concentrations, HepG2, read-out: inhibition rate (myostatin inhibition assay)
[3] = HepG2, first GDF-11 column of Table 7-3/7-4, GDF-11 10 ng/mL, peptide at the lower of the 2 concentrations, read-out: inhibition rate (GDF-11 inhibition assay)
[4] = HepG2, second GDF-11 column of Table 7-3/7-4, GDF-11 10 ng/mL, peptide at the higher of the 2 concentrations, read-out: inhibition rate (GDF-11 inhibition assay)
[5] = peptide 30nM, Myostatin 10 ng/mL, HepG2, read-out: Myostatin Inhibition 30nM
[6] = peptide 100nM, Myostatin 10 ng/mL, HepG2, read-out: Myostatin Inhibition 100nM
[7] = HepG2, read-out: inhibition rate (myostatin inhibition assay)

Structure (SMILES)	inhibition at 0.1 µM (Myostatin; [1]) [%]	inhibition at 0.03 µM (Myostatin; [2]) [%]	inhibition (GDF-11; [3]) [%]	inhibition (GDF-11; [4]) [%]	inhibition at 0.03 µM (Myostatin; [5]) [%]	inhibition at 0.1 µM (Myostatin; [6]) [%]	inhibition at 0.03 µM (GDF-11) [%]	inhibition at 0.1 µM (GDF-11) [%]	further results
CCCCCCC[C@@H]1NC(=O)[C@H](Cc2ccccc2)N(C)C(=O)[C@H](CCCNC(=N)N)NC(=O)[C@H](Cc2ccc(C(=O)O)cc2)NC(=O)[C@H](Cc2cccc(OCC(=O)O)c2)NC(=O)[C@H](C)N(C)C(=O)[C@H]([C@@H](C)CC)NC(=O)[C@H](Cc2ccccc2)N(C)C(=O)[C@H](Cc2ccc(O)cc2)NC(=O)[C@H](Cc2c[nH]c3ccccc23)NC(=O)[C@H](C)NC(=O)CN(CCCC(=O)O)C(=O)CSC[C@H](C(=O)N2CCC(CC(=O)O)CC2)NC(=O)[C@H](Cc2ccccc2)N(C)C(=O)[C@H](C)N(C)C1=O [Myostatin_99_v430] ({CH2CO}-[Gly(N(CH2)3COOH)]AWY[NMeF]I[NMeA][Phe(3-OCH2COOH)][Phe(4-COOH)]R[NMeF][X1][NMeA][NMeF][dC]-{Piperidinyl(4-CH2COOH)}; thioether N-15)	100	100	0	0					
CC[C@H](C)[C@@H]1NC(=O)[C@H](Cc2ccccc2)N(C)C(=O)[C@H](Cc2ccc(O)cc2)NC(=O)[C@H](Cc2c[nH]c3ccccc23)NC(=O)[C@H](CCCNC(=N)N)NC(=O)[C@H](C)NC(=O)CSC[C@@H](C(=O)N[C@@H](CN)C(N)=O)NC(=O)[C@H](Cc2ccccc2)N(C)C(=O)[C@H](C)N(C)C(=O)[C@H](CC(C)C)NC(=O)[C@H](Cc2ccccc2)N(C)C(=O)[C@H](CCCNC(=N)N)NC(=O)[C@H](Cc2ccc(O)cc2)NC(=O)[C@H](Cc2ccc(O)cc2)NC(=O)CN(C)C1=O [Myostatin_000099_16Dap] ({CH2CO}-ARWY[NMeF]I[Sar]YYR[NMeF]L[NMeA][NMeF]C[Dap]-NH2; thioether N-15)					56	83	0	11	
CCCCCCCCCC[C@@H]1NC(=O)[C@H](CC2CCCCC2)NC(=O)[C@H](CCCNC(=N)N)NC(=O)[C@H](Cc2ccc(C(=O)O)cc2)NC(=O)[C@H](CCCCNC(=O)N2CCN(CC(=O)O)CC2)NC(=O)[C@H]2CCCN2C(=O)[C@H]([C@@H](C)CC)NC(=O)[C@H](CC2CCCCC2)N(C)C(=O)[C@H](Cc2ccc(O)cc2)NC(=O)[C@H](Cc2c[nH]c3ccccc23)NC(=O)[C@@H](CCC(=O)O)NC(=O)[C@H](C)NC(=O)CSC[C@H](C(=O)N2CCN(CC(=O)O)CC2)NC(=O)[C@H](Cc2ccccc2)N(C)C(=O)[C@H](C)N(C)C1=O [Myostatin_99_v247] ({CH2CO}-A[dE]WY[NMeCha]I[dP]K([CO-Piperazinyl(4-CH2COOH)])[Phe(4-COOH)]R[Cha][Gly(decyl)][NMeA][NMeF][dC]-{Piperazinyl(4-CH2COOH)}; thioether N-15)					68	94	0	6	
CCCCCCC[C@@H]1NC(=O)[C@H](Cc2ccccc2)N(C)C(=O)[C@H](CCCNC(=N)N)NC(=O)[C@H](Cc2ccc(C(=O)O)cc2)NC(=O)[C@H](Cc2ccc(-c3ccccc3OCC(=O)O)cc2)NC(=O)[C@H](C)N(C)C(=O)[C@H]([C@@H](C)CC)NC(=O)[C@H](Cc2ccccc2)N(C)C(=O)[C@H](Cc2ccc(O)cc2)NC(=O)[C@H](Cc2c[nH]c3cc(O)ccc23)NC(=O)[C@H](C)NC(=O)CN(CCCC(=O)O)C(=O)CSC[C@H](C(=O)O)NC(=O)[C@H](Cc2ccccc2)N(C)C(=O)[C@H](C)N(C)C1=O [Myostatin_99_v373] ({CH2CO}-[Gly(N(CH2)3COOH)]A[Trp(6-OH)]Y[NMeF]I[NMeA][X3][Phe(4-COOH)]R[NMeF][X1][NMeA][NMeF][dC]-OH; thioether N-15)									inhibition at 0.03 µM (Myostatin; [7]): 100%; inhibition at 0.1 µM (Myostatin; [7]): 100%; inhibition (GDF-11; HepG2, read-out: inhibition rate (GDF-11 inhibition assay), Table 7-3/7-4, GDF-11 10 ng/mL, peptide at the higher of the 2 concentrations): 47%; inhibition (GDF-11; HepG2, read-out: inhibition rate (GDF-11 inhibition assay), Table 7-3/7-4, GDF-11 10 ng/mL, peptide at the lower of the 2 concentrations): 0%

Continued, in another order:

inhibition at 0.1 µM (Myostatin; [1]) [%]	inhibition at 0.03 µM (Myostatin; [2]) [%]	inhibition (GDF-11; [3]) [%]	inhibition (GDF-11; [4]) [%]	inhibition at 0.03 µM (Myostatin; [5]) [%]	inhibition at 0.1 µM (Myostatin; [6]) [%]	inhibition at 0.03 µM (GDF-11) [%]	inhibition at 0.1 µM (GDF-11) [%]	Structure (SMILES)	further results
100	100	12	40					CCCCCCC[C@@H]1NC(=O)[C@H](Cc2ccccc2)N(C)C(=O)[C@H](CCCNC(=N)N)NC(=O)[C@H](Cc2ccc(C(=O)O)cc2)NC(=O)[C@H](Cc2cccc(OCC(=O)O)c2)NC(=O)CN(C)C(=O)[C@H]([C@@H](C)CC)NC(=O)[C@H](Cc2ccccc2)N(C)C(=O)[C@H](Cc2ccc(O)cc2)NC(=O)[C@H](Cc2c[nH]c3ccccc23)NC(=O)[C@H](C)NC(=O)[C@H](C)NC(=O)CSC[C@H](C(=O)N2CCC(CC(=O)O)CC2)NC(=O)[C@H](Cc2ccccc2)N(C)C(=O)[C@H](C)N(C)C1=O [Myostatin_99_v313] ({CH2CO}-AAWY[NMeF]I[Sar][Phe(3-OCH2COOH)][Phe(4-COOH)]R[NMeF][X1][NMeA][NMeF][dC]-{Piperidinyl(4-CH2COOH)}; thioether N-15)	
				31	57	0	0	CC[C@H](C)[C@@H]1NC(=O)[C@H](Cc2ccccc2)N(C)C(=O)[C@H](Cc2ccc(O)cc2)NC(=O)[C@H](Cc2c[nH]c3ncccc23)NC(=O)[C@H](C)NC(=O)CN(CCCC(=O)O)C(=O)CSC[C@H](C(=O)O)NC(=O)[C@H](Cc2ccccc2)N(C)C(=O)[C@H](C)N(C)C(=O)[C@H](CC(C)C)NC(=O)[C@H](Cc2ccccc2)N(C)C(=O)[C@H](CCCNC(=N)N)NC(=O)[C@H](Cc2ccc(OCC(=O)O)cc2)NC(=O)[C@H](Cc2cccc(OC)c2)NC(=O)[C@H](C)N(C)C1=O [Myostatin_99_v127] ({CH2CO}-[Gly(N(CH2)3COOH)]A[Trp(7-aza)]Y[NMeF]I[NMeA][Phe(3-OMe)]Y(Carboxymethyl)R[NMeF]L[NMeA][NMeF][dC]-OH; thioether N-15)	
				58	83	0	9	CC[C@H](C)[C@@H]1NC(=O)[C@H](Cc2ccccc2)N(C)C(=O)[C@H](Cc2ccc(O)cc2)NC(=O)[C@H](Cc2c[nH]c3ccccc23)NC(=O)[C@H](CCC(=O)O)NC(=O)[C@H](C)NC(=O)CSC[C@@H](C(N)=O)NC(=O)[C@H](Cc2ccccc2)N(C)C(=O)[C@H](C)N(C)C(=O)[C@H](CC(C)C)NC(=O)[C@H](Cc2ccccc2)N(C)C(=O)[C@H](CCCNC(=N)N)NC(=O)[C@H](Cc2ccc(O)cc2)NC(=O)[C@H](Cc2ccc(O)cc2)NC(=O)CN(C)C1=O [Myostatin_000099_02E] ({CH2CO}-AEWY[NMeF]I[Sar]YYR[NMeF]L[NMeA][NMeF]C-NH2; thioether N-15)	
100	99	0	0					CCCCCCC[C@@H]1NC(=O)[C@H](Cc2ccccc2)N(C)C(=O)[C@H](CCCNC(=N)N)NC(=O)[C@H](Cc2ccc(C(=O)O)cc2)NC(=O)[C@H](Cc2cccc(OCC(=O)O)c2)NC(=O)[C@H](C)N(C)C(=O)[C@H]([C@@H](C)CC)NC(=O)[C@H](Cc2ccccc2)N(C)C(=O)[C@H](Cc2ccc(O)cc2)NC(=O)[C@H](Cc2c[nH]c3c(-c4cccc(Cl)c4)cccc23)NC(=O)[C@H](C)NC(=O)CN(CCCC(=O)O)C(=O)CSC[C@H](C(=O)O)NC(=O)[C@H](Cc2ccccc2)N(C)C(=O)[C@H](C)N(C)C1=O [Myostatin_99_v378] ({CH2CO}-[Gly(N(CH2)3COOH)]A[X16]Y[NMeF]I[NMeA][Phe(3-OCH2COOH)][Phe(4-COOH)]R[NMeF][X1][NMeA][NMeF][dC]-OH; thioether N-15)	
				94	98	15	48	CC[C@H](C)[C@@H]1NC(=O)[C@H](Cc2ccccc2)N(C)C(=O)[C@H](Cc2ccc(O)cc2)NC(=O)[C@H](Cc2c[nH]c3ccccc23)NC(=O)[C@@H](C)NC(=O)[C@H](C)NC(=O)CSC[C@H](C(N)=O)NC(=O)[C@H](Cc2ccccc2)N(C)C(=O)[C@H](C)N(C)C(=O)[C@H](CC(C)C)NC(=O)[C@H](Cc2ccccc2)N(C)C(=O)[C@H](CCCNC(=N)N)NC(=O)[C@H](Cc2ccc(O)cc2)NC(=O)[C@H](Cc2ccc(O)cc2)NC(=O)CN(C)C1=O [Myostatin_99_2da_15dc_NH2] ({CH2CO}-A[dA]WY[NMeF]I[Sar]YYR[NMeF]L[NMeA][NMeF][dC]-NH2; thioether N-15)	
